Assay results published in the NIST ThermoML archive (doi:10.1016/j.fluid.2018.01.019).
± gives the expanded uncertainty stated by the source.

Experiments:
[1] = refractive index (Na D-line) (dimensionless); xn = mol fraction of the nth substance listed; conditions: 313.15 K; 101 kPa; Liquid; Standard Abbe refractometry; x1 = 0.333
[2] = xn = mol fraction of the nth substance listed; conditions: 313.15 K; 101 kPa; Liquid; Vibrating tube method; x1 = 0.333

## C[N+](C)(C)C.[Cl-] [tetramethylammonium chloride] + OCCO
[1]
  refractive index: 1.45599 ± 0.00033
[2]
  mass density: 1072.19 ± 0.19 kg/m3
